Laboratory results taken from patent US11590087B2, “Cannabidiol-type cannabinoid compound” (GW Research Limited, priority 2019, dated 2023).

Assays:
[1] = system: tonic hind limb extensor seizure; test: Supramaximal electroshock seizure (MES) test in the mouse; type: in vivo
Excerpt: The supramaximal electroshock seizure ([…]) test is widely utilized preclinically to evaluate anti-convulsant properties of molecules and standard anti-epileptic drugs (Loscher et al., 1991).
The MES test is a very stringent model in which mice receive a predetermined high-level electrical stimulus of sufficient intensity to reliably produce tonic hindlimb extensor seizures in 100% of control animals. As such the MES test is a rigorous evaluation of anticonvulsant activity (Swinyard, 1985).
Animals were dosed i.p. according to treatment group.
The vehicle (10 ml/kg i.p. 60 min pre-treatment time) was 1:1:18 vehicle 5% ethanol, 5% kolliphor EL, 90% saline.
The test compound, 6-OH CBDV was administered at doses of 3, 10, 30, and 100 mg/kg given at 10 ml/kg i.p. 60 min pre-treatment time.
The positive control valproate was used at 250 mg/kg (10 ml/kg i.p. 30 min pre-treatment time).
Induction of seizure is measured as an all-or-nothing effect scored as either present (+) or absent (0) for each animal.
Data was collected by an observer unaware of the treatment for each animal and was expressed as the number of +'s or 0's for each treatment group.
The percentage inhibition of relevant vehicle treated group (the protection relative to vehicle treated controls) was then generated.
Significant differences between individual treatment groups and vehicle-treated groups were assessed using 2-tailed Fisher's Exact Probability test (p<0.05 considered significant).

[2] = system: tonic hind limb extensor convulsions; test: Maximal electroshock seizure threshold (MEST) test in the mouse; conditions: for % change from vehicle (CC50) / CC50 ± SEM: mouse
Protocol: The efficacy of 6-OH CBDV was tested in a mouse model of generalised seizure, the maximal electroshock seizure threshold (MEST) test.
The maximal electroshock seizure threshold (MEST) test is widely utilized preclinically to evaluate pro- or anti-convulsant properties of test compounds (Loscher et al., 1991).
In the MEST test the ability of a drug to alter the seizure threshold current required to induce hind limb tonic extensor convulsions is measured according to an “up and down” method of shock titration (Kimball et al., 1957). An increase in seizure threshold is indicative of anti-convulsant effect.
The ability of a test compound to alter the stimulus intensity, expressed as current (mA), required to induce the presence of tonic hind limb extensor convulsions, is assessed in the MEST.
Naïve mice were acclimatised to the procedure room in their home cages for up to 7 days, with food and water available ad libitum.
All animals were weighed at the beginning of the study and randomly assigned to treatment groups based on a mean distribution of body weight across groups.
The first animal within a treatment group was given a shock at the expected or estimated CC50 current. For subsequent animals, the current was lowered or raised depending on the convulsions outcome from the preceding animal.
Data generated from each treatment group were used to calculate the CC50±SEM values for the treatment group.
Vehicle: (5% ethanol, 5% solutol, 90% Saline) was prepared as follows: 2 mL of ethanol, 2 mL of solutol were warmed to 60° C., in 36 mL of saline (1:1:18).
The test compound, alpha 6-OH CBDV was prepared according to the method described in Example 1. 6-OH CBDV was administered at 3, 10 and 30 mg/kg (i.p.) in a 1:1:18 ethanol:soluto:0.9% saline formulation.
6-OH CBDV effects were also calculated as percentage change in CC50 from the vehicle control group.
Significant difference between drug-treated animals and controls were assessed according to Litchfield and Wilcoxon (1949).

[3] = 3 mg/kg i.p., 15 min pre-treatment
[4] = 10 mg/kg i.p., 15 min pre-treatment
[5] = 30 mg/kg i.p., 30 min pre-treatment
[6] = 250 mg/kg i.p., 30 min pre-treatment

In the case of C=C(C)[C@@H]1CC(O)C(C)=C[C@H]1c1c(O)cc(CCC)cc1O (stereo partly drawn) [6-OH CBDV, Alpha 6-hydroxy cannabidivarin], the “% change from vehicle” value ([1]; 3 mg/kg i.p., 60 min pre-treatment) is reported as 20%, the “% change from vehicle” value ([1]; 10 mg/kg i.p., 60 min pre-treatment) is reported as 20% and the “% change from vehicle” value ([1]; 30 mg/kg i.p., 60 min pre-treatment) is reported as 100%. The “Induction of seizure (present/absent)” value ([1]; 30 mg/kg i.p., 60 minutes before the test) was “enabled all mice to withstand seizures”, the “% change from vehicle” value ([1]; 100 mg/kg i.p., 60 min pre-treatment) was 100% and the “Induction of seizure (present/absent)” value ([1]; 100 mg/kg i.p., 60 minutes before the test) was “enabled all mice to withstand seizures”. The “% change from vehicle (CC50)” value [2, 3] was 111%, the “CC50 ± SEM” value [2, 3] was 54.2 ± 1.4 mA and the “% change from vehicle (CC50)” value [2, 4] was 147%. The “CC50 ± SEM” value [2, 4] was 63.5 ± 3.4 mA, the “% change from vehicle (CC50)” value [2, 5] was 260% and the “CC50 ± SEM” value [2, 5] was 92.5 ± 0.4 mA. For the same molecule, the “Effect on MEST (seizure threshold) across doses” value ([2]; mouse, 3, 10 and 30 mg/kg i.p.) was “dose-related increase in MEST”.
In the case of CCCC(CCC)C(=O)[O-].[Na+] [Valproate, sodium valproate, reference compound], the “% change from vehicle” value [1, 6] is reported as 100%, the “Induction of seizure (present/absent)” value ([1]; 250 mg/kg i.p., 30 minutes before the test) is reported as “all animals were scored as not having a seizure” and the “% change from vehicle (CC50)” value [2, 6] is reported as 997%.
For CN1C(=O)CN=C(c2ccccc2)c2cc(Cl)ccc21 [Diazepam, diazepam, reference compound], the “% change from vehicle (CC50)” value ([2]; 2.5 mg/kg i.p., 30 min pre-treatment) was 124%.
